# Key:
# [1] = Capacity of drug loading of the electrospun polymer device; format: physicochemical; settings: larger quantities cause supersaturation of the solution
# From the text: With time, the solvent would evaporate leaving a crystallized non-homogenous mixture of polymer and drug.
# [2] = intravenous infusion, doses 30 to 170 mg/m^2; cited from earlier work
# [3] = cited from earlier work
# [4] = in vivo; cited from earlier work
SMILES,maximum amount of drug loaded in the electrospun polymer device [1] [wt %],average terminal half-life [2] [min],clearance [2] [mL/min/kg],steady-state volume of distribution [2] [L/kg],water solubility [3] [mg/mL],half-life [4]
"C[C@]12CC[C@@H]3c4ccc(O)cc4CC[C@H]3[C@@H]1CC[C@@H]2O [Beta-Estradiol, 17β-estradiol]",1,,,,,
O=NN(CCCl)C(=O)NCCCl [BCNU],,22,56,3.25,,
"COc1ccccc1OCC(O)CO (racemic) [Guaifenesin, (2RS)-3-(2-Methoxyphenoxy)propane-1,2-diol]",5,,,,50,approximately 1 hour
